Tests used:
[1] = target: T1, transthyretin (L55P-TTR) (Homo sapiens, UniProt P02766, L75P); experiment: ligand fluorescence titration (blue shift of OleA emission); noisier, and no stabilization in urea unfolding; assay type: binding
T1 construct: recombinant L55P-TTR, homotetramer

[2] = target: T2, transthyretin (wt-TTR) (Homo sapiens, UniProt P02766); experiment: ligand fluorescence titration (blue shift of OleA emission, fitted to a binding equilibrium); urea unfolding shows stabilization
T2 construct: recombinant wt-TTR, homotetramer

C/C=C1/C(O)OC=C(C(=O)OC)[C@H]1CC(=O)OCCc1ccc(O)c(O)c1 (mixture of isomers) [OleA, oleuropein aglycone]
Kd [1]: 3.12 ± 0.62 µM | Kd [2]: 3.23 ± 0.32 µM

Source: article PMC8953266, “The Transthyretin/Oleuropein Aglycone Complex: A New Tool against TTR Amyloidosis” (Pharmaceuticals, 2022)
